The source of these data is US9133235B2, “Macrocyclic antagonists of the motilin receptor for treatment of gastrointestinal dysmotility disorders” (Ocera Therapeutics, Inc., priority 2006, dated 2015).

What is called Ki is a measure of affinity in units of concentration, obtained from inhibition or displacement. A word on the Kd: it is a measure of binding affinity in units of concentration. The low end stands for tighter binding, the high end for weaker binding.

For this test, the target named is human motilin receptor (Homo sapiens, UniProt O43193). Description: Competitive radioligand binding assay (motilin receptor). Also on record: purchased PerkinElmer (SignalScreen) 6110544; host or cells: CHO cells, stably transfected; membranes. The settings on record: for Ki: [125I]-motilin competition, membranes of CHO cells with human motilin receptor, read-out: Ki. As for the experimental part:
A. Competitive Radioligand Binding Assay (Motilin Receptor)
The competitive binding assay at the human motilin receptor was carried out analogously to assays described in the literature.
• Membranes were prepared from CHO cells stably transfected with the human motilin receptor and utilized at a quantity of 1.5 μg/assay point. [PerkinElmer™ SignalScreen Product #6110544] • [^125I]-Motilin (PerkinElmer, #NEX-378); final concentration: 0.04-0.06 nM • Motilin (Bachem™, #H-4385); final concentration: 1 μM • Multiscreen Harvest plates-GF/B (Millipore™, #MAHFB1H60) • Deep-well polypropylene titer plate (Beckman Coulter™, #267006) • TopSeal-A (PerkinElmer, #6005185) • Bottom seal (Millipore, #MATAH0P00) • MicroScint-0 (PerkinElmer, #6013611) • Binding Buffer: 50 mM Tris-HCl (pH 7.4), 10 mM MgCl2, 1 mM EDTA, 0.1% BSA Assay Volumes: • 150 μL of membranes diluted in binding buffer • 10 μL of compound diluted in binding buffer • 10 μL of radioligand ([^125I]-Motilin) diluted in binding buffer Final Test Concentrations (N=11) for Compounds: • 10, 5.0, 2.0, 1.0, 0.50, 0.20, 0.10, 0.050, 0.020, 0.010, 0.0050 μM. Compound Handling:
Compounds were provided frozen on dry ice at a stock concentration of 10 mM diluted in 100% DMSO and stored at −20° C. until the day of testing. On the test day, compounds were allowed to thaw at room temperature and than diluted in assay buffer according to the desired test concentrations. Under these conditions, the maximum final DMSO concentration in the assay was 0.5%.
In deep-well plates, diluted cell membranes (1.5 μg/mL) are combined with 10 μL of either binding buffer (total binding, N=5), 1 μM motilin (non-specific binding, N=3) or the appropriate concentration of test compound. The reaction is initiated by addition of 10 μL of [^125I]-motilin (final conc. 0.04-0.06 nM) to each well. Plates are sealed with TopSeal-A, vortexed gently and incubated at room temperature for 2 hours. The reaction is arrested by filtering samples through pre-soaked (0.3% polyethyleneimine, 2 h) Multiscreen Harvest plates using a Tomtec Harvester, washed 9 times with 500 μL of cold 50 mM Tris-HCl (pH 7.4), and than plates are air-dried in a fumehood for 30 minutes. A bottom seal is applied to the plates prior to the addition of 25 μL of MicroScint-0 to each well. Plates are than sealed with TopSeal-A and counted for 30 sec per well on a TopCount Microplate Scintillation and Luminescence Counter (PerkinElmer) where results are expressed as counts per minute (cpm).
Data are analyzed by GraphPad™ Prism® (GraphPad Software, San Diego, Calif.) using a variable slope non-linear regression analysis.
[formula] where total and non-specific binding represent the cpm obtained in the absence or presence of 1 μM motilin, respectively.

Where only a bound is given, the exact number is not on record here.

Chain of human motilin receptor (O43193 whole entry): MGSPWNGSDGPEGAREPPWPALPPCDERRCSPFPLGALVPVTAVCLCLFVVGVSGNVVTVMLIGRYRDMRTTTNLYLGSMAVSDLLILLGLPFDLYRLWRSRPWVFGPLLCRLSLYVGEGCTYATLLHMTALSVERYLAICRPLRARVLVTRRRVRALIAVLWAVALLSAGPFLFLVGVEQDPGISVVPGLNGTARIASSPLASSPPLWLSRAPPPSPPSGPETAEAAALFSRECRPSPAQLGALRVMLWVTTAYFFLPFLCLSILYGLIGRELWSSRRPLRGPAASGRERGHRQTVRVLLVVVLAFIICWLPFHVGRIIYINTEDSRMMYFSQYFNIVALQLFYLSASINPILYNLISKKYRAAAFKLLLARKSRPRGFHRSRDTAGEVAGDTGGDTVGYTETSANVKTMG

For the compound `C[C@@H]1CNC(=O)[C@H](CC2CC2)NC(=O)[C@@H](C2CC2)NC(=O)[C@@H](Cc2cccc(F)c2)NCCOc2ccccc2C1` [Compound 566], the inhibition constant (Ki) is not above 10 nM.
As to `CC[C@H](C)[C@H](NC(=O)[C@@H]1CCCN1C(=O)[C@@H](NC(=O)[C@@H](N)Cc1ccccc1)C(C)C)C(=O)N[C@@H](Cc1ccccc1)C(=O)N[C@H](C(=O)N[C@@H](Cc1ccc(O)cc1)C(=O)NCC(=O)N[C@@H](CCC(=O)O)C(=O)N[C@@H](CC(C)C)C(=O)N[C@@H](CCC(N)=O)C(=O)N[C@@H](CCCNC(=N)N)C(=O)N[C@@H](CCSC)C(=O)N[C@@H](CCC(N)=O)C(=O)N[C@@H](CCC(=O)O)C(=O)N[C@@H](CCCCN)C(=O)N[C@@H](CCC(=O)O)C(=O)N[C@@H](CCCNC(=N)N)C(=O)N[C@@H](CC(N)=O)C(=O)N[C@@H](CCCCN)C(=O)NCC(=O)N[C@@H](CCC(N)=O)C(=O)O)[C@@H](C)O` [[^125I]-motilin, [^125I]-Motilin, reference compound], the Kd (previously determined during membrane characterization) was 0.16 nM.
Regarding `CC(C)[C@H]1NC(=O)[C@@H](Cc2cccc(Cl)c2)NCCOc2ccccc2CCCNC(=O)[C@H](CC(=N)N)NC1=O` [Compound 518], the inhibition constant (Ki) was not above 100 nM.
On the same count and under the same terms, the same measure for `CC(C)[C@H]1NC(=O)[C@@H](Cc2cccc(F)c2)NCCOc2ccccc2C[C@@H](C)CNC(=O)[C@H](CC2CC2)NC1=O` [Compound 587]: not above 100 nM.
The same measure, in the same setting: the same measure for `CC(C)[C@H]1NC(=O)[C@@H](Cc2ccc(F)cc2)NCCOc2ccccc2C[C@H](C)CNC(=O)[C@H](CC2CC2)NC1=O` [Compound 567]: not above 10 nM.
Consider `CC(C)[C@H]1NC(=O)[C@@H](Cc2cccc(Cl)c2)NCCOc2ccccc2CCCNC(=O)[C@H](CNC2=NCCCN2)NC1=O` [Compound 521], for which the Ki was not above 100 nM.
On the same count and under the same terms, the same measure for `CC(C)[C@H]1NC(=O)[C@@H](Cc2cccc(F)c2)NCCOc2ccccc2C[C@@H](C)CNC(=O)[C@H](CN(C)C)NC1=O` [Compound 514]: not above 1000 nM.
With `CC(C)[C@H]1NC(=O)[C@@H](Cc2cccc(Cl)c2)NCCOc2ccccc2CCCNC(=O)[C@H](CN/C(N)=N/C#N)NC1=O` [Compound 522], the Ki is not above 100 nM.
Same read-out and setting: the same measure for `CC(C)NC[C@@H]1NC(=O)[C@@H](C(C)C)NC(=O)[C@@H](Cc2ccc(O)cc2)NCCOc2ccccc2CCCNC1=O` [Compound 579]: not above 1000 nM.
The same measure, in the same setting: the same measure for `CC(C)[C@H]1NC(=O)[C@@H](Cc2ccc(Cl)cc2)NCCOc2ccccc2CCCNC(=O)[C@H](CNS(C)(=O)=O)NC1=O` [Compound 576]: not above 1000 nM; for `CCC[C@@H]1NC(=O)[C@@H](C(C)C)NC(=O)[C@@H](Cc2ccc(C(F)(F)F)cc2)NCCOc2ccccc2CCCNC1=O` [Compound 575]: not above 100 nM; for `CC(C)[C@H]1NC(=O)[C@@H](Cc2cccc(C(F)(F)F)c2)NCCOc2ccccc2CCCNC(=O)[C@H](Cn2nncc2CN)NC1=O` [Compound 523]: not above 100 nM.
Same read-out and setting: the same measure for `CC(C)NC[C@@H]1NC(=O)[C@@H](C(C)C)NC(=O)[C@@H](Cc2ccc(Cl)cc2)NCCOc2ccccc2CCCNC1=O` [Compound 581]: not above 100 nM; for `CC(C)[C@H]1NC(=O)[C@@H](Cc2cccc(C(F)(F)F)c2)NCCOc2ccccc2CCCNC(=O)[C@H](CNc2ncccn2)NC1=O` [Compound 524]: not above 100 nM.
In the case of `CC(C)[C@H]1NC(=O)[C@@H](Cc2cccc(F)c2)NCCOc2ccccc2C[C@H](C)CNC(=O)[C@H](CC2CC2)NC1=O` [Compound 588], the inhibitory constant (Ki) was not above 10 nM.
Still for that read-out and setting: the same measure for `CCC[C@@H]1NC(=O)[C@@H](CC)NC(=O)[C@@H](Cc2cccc(F)c2)N[C@@H](C)COc2ccccc2CCCNC1=O` [Compound 558]: not above 10 nM.
Consider `CCC[C@@H]1NC(=O)[C@@H](C(C)C)NC(=O)[C@@H](Cc2cccc(OC)c2)N[C@@H](C)COc2ccccc2CCCNC1=O` [Compound 562], for which the inhibition constant Ki is not above 10 nM.
Same read-out and setting: the same measure for `CC(C)[C@H]1NC(=O)[C@@H](Cc2cccc(Cl)c2)NCCOc2ccccc2CCCNC(=O)[C@H](CCNC(=N)N)NC1=O` [Compound 507]: not above 100 nM; for `Cc1nnn(C[C@@H]2NC(=O)[C@@H](C(C)C)NC(=O)[C@@H](Cc3cccc(C(F)(F)F)c3)NCCOc3ccccc3CCCNC2=O)c1C` [Compound 528]: not above 100 nM; for `CC(C)[C@H]1NC(=O)[C@@H](Cc2cccc(Cl)c2)NCCOc2ccccc2CCCNC(=O)[C@H](CNc2nccs2)NC1=O` [Compound 509]: not above 100 nM.
Same read-out and setting: the same measure for `CC(C)C[C@@H]1NC(=O)[C@@H](C(C)C)NC(=O)[C@@H](Cc2cccc(F)c2)N[C@@H](C)COc2ccccc2CCCNC1=O` [Compound 556]: not above 10 nM.
On the same count and under the same terms, the same measure for `CC(C)[C@H]1NC(=O)[C@@H](Cc2ccc(F)cc2)N[C@@H](C)COc2ccccc2CCCNC(=O)[C@H](CC2CC2)NC1=O` [Compound 559]: not above 10 nM.
Take `CC(C)[C@H]1NC(=O)[C@@H](Cc2ccc(Cl)cc2)NCCOc2ccccc2CCCNC(=O)[C@H](CNC(N)=O)NC1=O` [Compound 577]: the inhibition constant (Ki) was not above 1000 nM.
On the same count and under the same terms, the same measure for `CC(C)[C@H]1NC(=O)[C@@H](Cc2cccc(F)c2)NCCOc2ccccc2CCCNC(=O)[C@H](CC2CC2)NC1=O` [Compound 584]: not above 100 nM.
Take `CC(C)[C@H]1NC(=O)[C@@H](Cc2cccc(C(F)(F)F)c2)NCCOc2ccccc2CCCNC(=O)[C@H](CN2CCOCC2)NC1=O` [Compound 525]: the Ki is not above 100 nM.
Same read-out and setting: the same measure for `Cc1nnnn1C[C@@H]1NC(=O)[C@@H](C(C)C)NC(=O)[C@@H](Cc2cccc(C(F)(F)F)c2)NCCOc2ccccc2CCCNC1=O` [Compound 527]: not above 100 nM; for `CCC[C@@H]1NC(=O)[C@@H](C(C)C)NC(=O)[C@@H](Cc2ccc(F)cc2)N[C@@H](C)COc2ccccc2CCCNC1=O` [Compound 560]: not above 10 nM.
Still for that read-out and setting: the same measure for `COc1ccc(C[C@H]2NCCOc3ccccc3CCCNC(=O)[C@H](CCO)NC(=O)[C@@H](C(C)C)NC2=O)cc1` [Compound 583]: not above 1000 nM; for `Cc1cnnn1C[C@@H]1NC(=O)[C@@H](C(C)C)NC(=O)[C@@H](Cc2cccc(C(F)(F)F)c2)NCCOc2ccccc2CCCNC1=O` [Compound 526]: not above 100 nM.
As to `CCC[C@@H]1NC(=O)[C@@H](C(C)C)NC(=O)[C@@H](Cc2ccc(F)c(F)c2)N[C@@H](C)COc2ccccc2CCCNC1=O` [Compound 561], the Ki is not above 10 nM.
